Each compound was assayed against T1, Human BCL-XL protein (N-terminal HiBiT tagged BCL-XL in HT1080 cells) (Homo sapiens, UniProt Q07817) (assay: HiBiT based degradation assay). Conditions: HT1080 cells expressing N-terminal HiBiT tagged BCL-XL, 6 h, normalized with DMSO control.
T1 construct: expressed in transfected cells; host or cells: HT-1080 (ATCC CCL-121), stably transduced with lentivirus pLV-UBC-N-HiBiT-BCL-XL-PGK-puro and selected with puromycin
T1 sequence (Q07817 whole entry): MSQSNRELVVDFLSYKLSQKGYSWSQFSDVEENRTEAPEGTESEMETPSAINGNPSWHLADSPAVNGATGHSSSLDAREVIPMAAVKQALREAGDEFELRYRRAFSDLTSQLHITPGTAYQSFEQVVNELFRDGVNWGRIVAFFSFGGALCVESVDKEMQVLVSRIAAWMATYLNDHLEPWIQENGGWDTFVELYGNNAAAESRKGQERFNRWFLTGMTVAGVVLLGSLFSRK
Assay type: cell-based
Source text: HiBiT Based Degradation Assay
Human BCL-XL protein coding open reading frame fused with N-terminal HiBiT coding sequence was synthesized from Integrated DNA Technologies (IDT). Next, N-HiBiT-BCL-XL sequence was cloned into pLV-UBC-PGK-Puro, a lentivirus plasmid purchased from Vectorbuilder, to generate pLV-UBC-N-HiBiT-BCL-XL-PGK-puro. Lentiviral particles were generated from Lenti-X™ 293T cells (Clontech) by co-transfection of pLV-UBC-N-HiBiT-BCL-XL-PGK-puro plasmids and lentiviral packaging plasmid mix (Cellecta). HT-1080 [HT1080](ATCC CCL-121) cells were infected with the lentivirus, and HT1080 cells stably integrated with the lentiviral vectors were established by incubation with 1 μg/mL puromycin (Thermofisher).
HT1080 cells expressing N-terminal HiBiT tagged BCL-XL were dispensed into a 384-well plate pre-spotted with compounds at varying concentrations. Three thousand cells were seeded into each well in 40 μL of RPMI 1640 media. […] After incubation, luminescence was read on a PHERAstar FSX Plate Reader (BMG). BCL-XL degradation at each indicated concentration was normalized with the DMSO control. The BCL-XL degradation curves were plotted using a four-parameter logistic model. For compounds displaying hook effects, the curve fitting was performed using the bottom point of the hook curves (i.e., the point of Ymin) as the bottom plateau to calculate EC50.
In the case of Cc1ncsc1-c1ccc([C@H](C)NC(=O)[C@@H]2C[C@@H](O)CN2C(=O)[C@@H](NC(=O)CCCCCCCCCCCCCCCn2nc(C)c(-c3ccc(N4CCc5cccc(C(=O)Nc6nc7ccccc7s6)c5C4)nc3C(=O)O)c2C)C(C)(C)C)cc1 [Compound 102a, 6-[8-(1,3-Benzothiazol-2-ylcarbamoyl)-3,4-dihydro-1H-isoquinolin-2-yl]-3-[1-[16-[[(1S)-1-[(2S,4R)-4-hydroxy-2-[[(1S)-1-[4-(4-methylthiazol-5-yl)phenyl]ethyl]carbamoyl]pyrrolidine-1-carbonyl]-2,2-dimethyl-propyl]amino]-16-oxo-hexadecyl]-3,5-dimethyl-pyrazol-4-yl]pyridine-2-carboxylic acid], the “Ymin (6 h)” value is reported as “A (Ymin < 50%)”. In the case of Cc1ncsc1-c1ccc([C@H](C)NC(=O)[C@@H]2C[C@@H](O)CN2C(=O)[C@@H](NC(=O)CCCCCCCCCn2nc(C)c(-c3ccc(N4CCc5cccc(C(=O)Nc6nc7ccccc7s6)c5C4)nc3C(=O)O)c2C)C(C)(C)C)cc1 [Compound 111a, 6-[8-(1,3-benzothiazol-2-ylcarbamoyl)-3,4-dihydro-1H-isoquinolin-2-yl]-3-[1-[10-[[(1S)-1-[(2S,4R)-4-hydroxy-2-[[(1S)-1-[4-(4-methylthiazol-5-yl)phenyl]ethyl]carbamoyl]pyrrolidine-1-carbonyl]-2,2-dimethyl-propyl]amino]-10-oxo-decyl]-3,5-dimethyl-pyrazol-4-yl]pyridine-2-carboxylic acid], the “Ymin (6 h)” value is reported as “B (50% ≤ Ymin < 70%)”. Cc1ncsc1-c1ccc([C@H](C)NC(=O)[C@@H]2C[C@@H](O)CN2C(=O)[C@@H](NC(=O)CCCc2ccc(Oc3cccc(-c4ccc(N5CCc6cccc(C(=O)Nc7nc8ccccc8s7)c6C5)nc4C(=O)O)c3C)cc2)C(C)(C)C)cc1 [Compound 115a, 6-(8-(benzo[d]thiazol-2-ylcarbamoyl)-3,4-dihydroisoquinolin-2 (1H)-yl)-3-(3-(4-(4-(((S)-1-((2S,4R)-4-hydroxy-2-(((S)-1-(4-(4-methylthiazol-5-yl)phenyl)ethyl)carbamoyl)pyrrolidin-1-yl)-3,3-dimethyl-1-oxobutan-2-yl)amino)-4-oxobutyl)phenoxy)-2-methylphenyl)picolinic acid] was tested, and the “Ymin (6 h)” value was “A (Ymin < 50%)”.

Same assay, conditions: HT1080 cells expressing N-terminal HiBiT tagged BCL-XL, 24 h, normalized with DMSO control
Cc1ncsc1-c1ccc([C@H](C)NC(=O)[C@@H]2C[C@@H](O)CN2C(=O)[C@@H](NC(=O)CN2CCC(COc3cccc(-c4ccc(N5CCc6cccc(C(=O)Nc7nc8ccccc8s7)c6C5)nc4C(=O)O)c3C)CC2)C(C)(C)C)cc1 [Compound 127a, 6-[8-(1,3-benzothiazol-2-ylcarbamoyl)-3,4-dihydro-1H-isoquinolin-2-yl]-3-[3-[[1-[2-[[(1S)-1-[(2S,4R)-4-hydroxy-2-[[(1S)-1-[4-(4-methylthiazol-5-yl)phenyl]ethyl]carbamoyl]pyrrolidine-1-carbonyl]-2,2-dimethyl-propyl]amino]-2-oxo-ethyl]-4-piperidyl]methoxy]-2-methyl-phenyl]pyridine-2-carboxylic acid] was tested, and the “Ymin (24 h)” value was “A (Ymin < 50%)”. Cc1ncsc1-c1ccc([C@H](C)NC(=O)[C@@H]2C[C@@H](O)CN2C(=O)[C@@H](NC(=O)CCCc2ccc(Oc3cccc(-c4ccc(N5CCc6cccc(C(=O)Nc7nc8ccccc8s7)c6C5)nc4C(=O)O)c3C)cc2)C(C)(C)C)nc1 [Compound 121a, 6-[8-(1,3-benzothiazol-2-ylcarbamoyl)-3,4-dihydro-1H-isoquinolin-2-yl]-3-[3-[4-[4-[[(1S)-1-[(2S,4R)-4-hydroxy-2-[[(1S)-1-[5-(4-methylthiazol-5-yl)-2-pyridyl]ethyl]carbamoyl]pyrrolidine-1-carbonyl]-2,2-dimethyl-propyl]amino]-4-oxo-butyl]phenoxy]-2-methyl-phenyl]pyridine-2-carboxylic acid] was tested, and the “Ymin (24 h)” value was “A (Ymin < 50%)”. With Cc1ncsc1-c1ccc([C@H](C)NC(=O)[C@@H]2C[C@@H](O)CN2C(=O)[C@@H](NC(=O)CCCc2ccc(Oc3cccc(-c4ccc(N5CCc6cccc(C(=O)Nc7nc8ccccc8s7)c6C5)nc4C(=O)O)c3C)cc2)C(C)(C)C)cc1 [Compound 115a, 6-(8-(benzo[d]thiazol-2-ylcarbamoyl)-3,4-dihydroisoquinolin-2 (1H)-yl)-3-(3-(4-(4-(((S)-1-((2S,4R)-4-hydroxy-2-(((S)-1-(4-(4-methylthiazol-5-yl)phenyl)ethyl)carbamoyl)pyrrolidin-1-yl)-3,3-dimethyl-1-oxobutan-2-yl)amino)-4-oxobutyl)phenoxy)-2-methylphenyl)picolinic acid] the “Ymin (24 h)” value was “A (Ymin < 50%)”. For Cc1ncsc1-c1ccc([C@@H](NC(=O)[C@@H]2C[C@@H](O)CN2C(=O)[C@@H](NC(=O)CCCc2ccc(Oc3cccc(-c4ccc(N5CCc6cccc(C(=O)Nc7nc8ccccc8s7)c6C5)nc4C(=O)O)c3C)cc2)C(C)(C)C)C(F)(F)F)cc1 [Compound 120a, 6-[8-(1,3-benzothiazol-2-ylcarbamoyl)-3,4-dihydro-1H-isoquinolin-2-yl]-3-[3-[4-[4-[[(1S)-1-[(2S,4R)-4-hydroxy-2-[[(1R)-2,2,2-trifluoro-1-[4-(4-methylthiazol-5-yl)phenyl]ethyl]carbamoyl]pyrrolidine-1-carbonyl]-2,2-dimethyl-propyl]amino]-4-oxo-butyl]phenoxy]-2-methyl-phenyl]pyridine-2-carboxylic acid], the “Ymin (24 h)” value was “A (Ymin < 50%)”. For Cc1ncsc1-c1ccc(CNC(=O)[C@@H]2C[C@@H](O)CN2C(=O)[C@@H](NC(=O)C2(F)CC2)C(C)(C)SCCCCCCCCOc2cccc(-c3ccc(N4CCc5cccc(C(=O)Nc6nc7ccccc7s6)c5C4)nc3C(=O)O)c2C)cc1 [Compound 136a, 6-(8-(benzo[d]thiazol-2-ylcarbamoyl)-3,4-dihydroisoquinolin-2 (1H)-yl)-3-(3-((8-(((R)-3-(1-fluorocyclopropane-1-carboxamido)-4-((2S,4R)-4-hydroxy-2-((4-(4-methylthiazol-5-yl)benzyl)carbamoyl)pyrrolidin-1-yl)-2-methyl-4-oxobutan-2-yl)thio)octyl)oxy)-2-methylphenyl)picolinic acid], the “Ymin (24 h)” value was “A (Ymin < 50%)”. With Cc1ncsc1-c1ccc([C@H](C)NC(=O)[C@@H]2C[C@@H](O)CN2C(=O)[C@@H](NC(=O)C[C@H](Cc2ccc(Oc3cccc(-c4ccc(N5CCc6cccc(C(=O)Nc7nc8ccccc8s7)c6C5)nc4C(=O)O)c3C)cc2)C(F)(F)F)C(C)(C)C)cc1 (single isomer, unassigned) [Compound 131a] the “Ymin (24 h)” value was “A (Ymin < 50%)”. With Cc1ncsc1-c1ccc([C@H](C)NC(=O)[C@@H]2C[C@@H](O)CN2C(=O)[C@@H](NC(=O)CC[C@H](c2ccc(Oc3cccc(-c4ccc(N5CCc6cccc(C(=O)Nc7nc8ccccc8s7)c6C5)nc4C(=O)O)c3C)cc2)C(F)(F)F)C(C)(C)C)cc1 (relative stereo) [Compound 135b, 6-(8-(benzo[d]thiazol-2-ylcarbamoyl)-3,4-dihydroisoquinolin-2 (1H)-yl)-3-(2-methyl-3-(4-((R)-1,1,1-trifluoro-5-(((S)-1-((2S,4R)-4-hydroxy-2-(((S)-1-(4-(4-methylthiazol-5-yl)phenyl)ethyl)carbamoyl)pyrrolidin-1-yl)-3,3-dimethyl-1-oxobutan-2-yl)amino)-5-oxopentan-2-yl)phenoxy)phenyl)picolinic acid] the “Ymin (24 h)” value was “A (Ymin < 50%)”. For Cc1ncsc1-c1ccc(CNC(=O)[C@@H]2C[C@@H](O)CN2C(=O)[C@@H](NC(=O)C2(F)CC2)C(C)(C)SCCCCCCCCCCCCOc2cccc(-c3ccc(N4CCc5cccc(C(=O)Nc6nc7ccccc7s6)c5C4)nc3C(=O)O)c2C)cc1 [Compound 142a], the “Ymin (24 h)” value was “B (50% ≤ Ymin < 70%)”. For Cc1ncsc1-c1ccc([C@H](C)NC(=O)[C@@H]2C[C@@H](O)CN2C(=O)[C@@H](NC(=O)[C@H](C)CCc2ccc(Oc3cccc(-c4ccc(N5CCc6cccc(C(=O)Nc7nc8ccccc8s7)c6C5)nc4C(=O)O)c3C)cc2)C(C)(C)C)cc1 (single isomer, unassigned) [Compound 143a], the “Ymin (24 h)” value was “A (Ymin < 50%)”. CC(=O)O[C@@H]1C[C@@H](C(=O)N[C@@H](C)c2ccc(-c3scnc3C)cc2)N(C(=O)[C@@H](NC(=O)C[C@H]2CC[C@H](Oc3cccc(-c4ccc(N5CCc6cccc(C(=O)Nc7nc8ccccc8s7)c6C5)nc4C(=O)O)c3C)CC2)C(C)(C)C)C1 [Compound 119a, 3-(3-(((1S,4r)-4-(2-(((S)-1-((2S,4R)-4-acetoxy-2-(((S)-1-(4-(4-methylthiazol-5-yl)phenyl)ethyl)carbamoyl)pyrrolidin-1-yl)-3,3-dimethyl-1-oxobutan-2-yl)amino)-2-oxoethyl)cyclohexyl)oxy)-2-methylphenyl)-6-(8-(benzo[d]thiazol-2-ylcarbamoyl)-3,4-dihydroisoquinolin-2 (1H)-yl)picolinic acid] was tested, and the “Ymin (24 h)” value was “B (50% ≤ Ymin < 70%)”. With Cc1ncsc1-c1ccc([C@H](C)NC(=O)[C@@H]2C[C@@H](O)CN2C(=O)[C@@H](NC(=O)C[C@H]2CC[C@@H](Oc3cccc(-c4ccc(N5CCc6cccc(C(=O)Nc7nc8ccccc8s7)c6C5)nc4C(=O)O)c3C)CC2)C(C)(C)C)cc1 [Compound 116b, 6-(8-(benzo[d]thiazol-2-ylcarbamoyl)-3,4-dihydroisoquinolin-2 (1H)-yl)-3-(3-(((1R,4s)-4-(2-(((S)-1-((2S,4R)-4-hydroxy-2-(((S)-1-(4-(4-methylthiazol-5-yl)phenyl)ethyl)carbamoyl)pyrrolidin-1-yl)-3,3-dimethyl-1-oxobutan-2-yl)amino)-2-oxoethyl)cyclohexyl)oxy)-2-methylphenyl)picolinic acid] the “Ymin (24 h)” value was “B (50% ≤ Ymin < 70%)”.
